From patent US12643871B2, “Aryl formamide compound containing chiral sulfur oxide or salt thereof, preparation method, herbicidal composition and use thereof” (Qingdao Kingagroot Chemical Compound Co., Ltd., priority 2019, dated 2026)

What was measured:
Test in all cases: Weeding effect in post-emergence stage
Assay type in all cases: in vivo
Settings in all cases: 250 g/ha; 2 leaf stage; 15 days after application; fresh weight control rate
Abutilon theophrasti = test system: Abutilon theophrasti
Summary of the method: (§1)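 Reported levels reflect fresh weight growth control rate banded 0 (<5%) through 5 (>85%), averaged over three repetitions. Treatment: foliar spray of 2-leaf-stage greenhouse plants at 15 to 500 g/ha, with 1.5 liter/ha methyl oleate synergist; assessment 15 days after application.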

Amaranthus retroflexus = test system: Amaranthus retroflexus
Summary of the method: as §1

Digitaria sanguinalis = test system: Digitaria sanguinalis
Summary of the method: as §1

Echinochloa crusgali = test system: Echinochloa crusgali
Summary of the method: as §1

Q: For `Cc1c(C(=O)Nc2nnnn2C)ccc(S(C)(=O)=O)c1[S@+]([O-])CCC(F)(F)F` [Compound 524], which “weeding effect in post-emergence stage, activity level (growth control rate), Abutilon theophrasti” value (from here on “weeding effect … Abutilon theophrasti”) (Abutilon theophrasti) is on record?
A: 5 (Level 5: growth control rate is above 85%)

Q: What about the “weeding effect in post-emergence stage, activity level (growth control rate), Amaranthus retroflexus” value (“weeding effect … Amaranthus retroflexus” below) (Amaranthus retroflexus) of the same molecule?
A: 5 (Level 5: growth control rate is above 85%)

Q: And the “weeding effect in post-emergence stage, activity level (growth control rate), Digitaria sanguinalis” value (“weeding effect … Digitaria sanguinalis” for short) (Digitaria sanguinalis)?
A: 5 (Level 5: growth control rate is above 85%)

Q: And the “weeding effect in post-emergence stage, activity level (growth control rate), Echinochloa crusgali” value (“weeding effect … Echinochloa crusgali” for short) (Echinochloa crusgali)?
A: 5 (Level 5: growth control rate is above 85%)

Q: With `CCC[S@@+]([O-])c1c(C(F)(F)F)ccc(C(=O)Nc2nnc(C)o2)c1CC` [Compound 538] as the molecule, how does the “weeding effect … Abutilon theophrasti” value (Abutilon theophrasti) read?
A: 5 (Level 5: growth control rate is above 85%)

Q: What about the “weeding effect … Amaranthus retroflexus” value (Amaranthus retroflexus) of the same molecule?
A: 5 (Level 5: growth control rate is above 85%)

Q: What about the “weeding effect … Digitaria sanguinalis” value (Digitaria sanguinalis) of the same molecule?
A: 5 (Level 5: growth control rate is above 85%)

Q: What about the “weeding effect … Echinochloa crusgali” value (Echinochloa crusgali) of the same molecule?
A: 5 (Level 5: growth control rate is above 85%)

Q: For `Cc1c(C(=O)Nc2nnnn2C)ccc(S(C)(=O)=O)c1[S@+]([O-])CCCF` [Compound 523], which “weeding effect … Abutilon theophrasti” value (Abutilon theophrasti) is on record?
A: 5 (Level 5: growth control rate is above 85%)

Q: And the “weeding effect … Amaranthus retroflexus” value (Amaranthus retroflexus)?
A: 5 (Level 5: growth control rate is above 85%)

Q: And the “weeding effect … Digitaria sanguinalis” value (Digitaria sanguinalis)?
A: 5 (Level 5: growth control rate is above 85%)

Q: And the “weeding effect … Echinochloa crusgali” value (Echinochloa crusgali)?
A: 5 (Level 5: growth control rate is above 85%)

Q: Which “weeding effect … Abutilon theophrasti” value (Abutilon theophrasti) does the source give for `Cc1c(C(=O)Nc2nnnn2C)ccc(S(C)(=O)=O)c1[S@+]([O-])CC(F)(F)F` [Compound 520] here?
A: 5 (Level 5: growth control rate is above 85%)

Q: What about the “weeding effect … Amaranthus retroflexus” value (Amaranthus retroflexus) of the same molecule?
A: 5 (Level 5: growth control rate is above 85%)

Q: What about the “weeding effect … Digitaria sanguinalis” value (Digitaria sanguinalis) of the same molecule?
A: 5 (Level 5: growth control rate is above 85%)

Q: And the “weeding effect … Echinochloa crusgali” value (Echinochloa crusgali)?
A: 5 (Level 5: growth control rate is above 85%)

Q: How did the “weeding effect … Abutilon theophrasti” value (Abutilon theophrasti) turn out when `Cc1c(C(=O)Nc2nnnn2C)ccc(S(C)(=O)=O)c1[S@+]([O-])CC(F)F` [Compound 522] was run?
A: 5 (Level 5: growth control rate is above 85%)

Q: What about the “weeding effect … Amaranthus retroflexus” value (Amaranthus retroflexus) of the same molecule?
A: 5 (Level 5: growth control rate is above 85%)

Q: And the “weeding effect … Digitaria sanguinalis” value (Digitaria sanguinalis)?
A: 5 (Level 5: growth control rate is above 85%)

Q: What about the “weeding effect … Echinochloa crusgali” value (Echinochloa crusgali) of the same molecule?
A: 5 (Level 5: growth control rate is above 85%)

Q: How did the “weeding effect … Abutilon theophrasti” value (Abutilon theophrasti) turn out when `CCC[S@@+]([O-])c1c(C(F)(F)F)ccc(C(=O)Nc2nnc(C)o2)c1I` [Compound 545] was run?
A: 5 (Level 5: growth control rate is above 85%)

Q: What about the “weeding effect … Amaranthus retroflexus” value (Amaranthus retroflexus) of the same molecule?
A: 5 (Level 5: growth control rate is above 85%)

Q: And the “weeding effect … Digitaria sanguinalis” value (Digitaria sanguinalis)?
A: 5 (Level 5: growth control rate is above 85%)

Q: And the “weeding effect … Echinochloa crusgali” value (Echinochloa crusgali)?
A: 5 (Level 5: growth control rate is above 85%)

Q: Which results are given for `CCC[S@@+]([O-])c1c(C(F)(F)F)ccc(C(=O)Nc2nnc(C)o2)c1SCOC` [Compound 573]?
A: weeding effect in post-emergence stage, activity level (growth control rate), Abutilon theophrasti (Abutilon theophrasti): 5 (Level 5: growth control rate is above 85%); weeding effect in post-emergence stage, activity level (growth control rate), Amaranthus retroflexus (Amaranthus retroflexus): 5 (Level 5: growth control rate is above 85%); weeding effect in post-emergence stage, activity level (growth control rate), Digitaria sanguinalis (Digitaria sanguinalis): 5 (Level 5: growth control rate is above 85%); weeding effect in post-emergence stage, activity level (growth control rate), Echinochloa crusgali (Echinochloa crusgali): 5 (Level 5: growth control rate is above 85%)

Q: Which results are given for `COCC[S@@+]([O-])c1c(S(C)(=O)=O)ccc(C(=O)Nc2nnnn2C)c1C` [Compound 528]?
A: weeding effect in post-emergence stage, activity level (growth control rate), Abutilon theophrasti (Abutilon theophrasti): 5 (Level 5: growth control rate is above 85%); weeding effect in post-emergence stage, activity level (growth control rate), Amaranthus retroflexus (Amaranthus retroflexus): 5 (Level 5: growth control rate is above 85%); weeding effect in post-emergence stage, activity level (growth control rate), Digitaria sanguinalis (Digitaria sanguinalis): 5 (Level 5: growth control rate is above 85%); weeding effect in post-emergence stage, activity level (growth control rate), Echinochloa crusgali (Echinochloa crusgali): 5 (Level 5: growth control rate is above 85%)

Q: `Cc1c(C(=O)Nc2nnnn2C)ccc(S(C)(=O)=O)c1[S@+]([O-])CCCCl` [Compound 526] was tested. Which “weeding effect … Abutilon theophrasti” value (Abutilon theophrasti) did it give?
A: 5 (Level 5: growth control rate is above 85%)

Q: What about the “weeding effect … Amaranthus retroflexus” value (Amaranthus retroflexus) of the same molecule?
A: 5 (Level 5: growth control rate is above 85%)

Q: What about the “weeding effect … Digitaria sanguinalis” value (Digitaria sanguinalis) of the same molecule?
A: 5 (Level 5: growth control rate is above 85%)

Q: What about the “weeding effect … Echinochloa crusgali” value (Echinochloa crusgali) of the same molecule?
A: 5 (Level 5: growth control rate is above 85%)

Q: How did the “weeding effect … Abutilon theophrasti” value (Abutilon theophrasti) turn out when `Cc1c(C(=O)Nc2nnnn2C)ccc(S(C)(=O)=O)c1[S@+]([O-])CC#N` [Compound 527] was run?
A: 5 (Level 5: growth control rate is above 85%)

Q: And the “weeding effect … Amaranthus retroflexus” value (Amaranthus retroflexus)?
A: 5 (Level 5: growth control rate is above 85%)

Q: What about the “weeding effect … Digitaria sanguinalis” value (Digitaria sanguinalis) of the same molecule?
A: 5 (Level 5: growth control rate is above 85%)

Q: What about the “weeding effect … Echinochloa crusgali” value (Echinochloa crusgali) of the same molecule?
A: 5 (Level 5: growth control rate is above 85%)

Q: With `Cc1c(C(=O)Nc2nnnn2C)ccc(S(C)(=O)=O)c1[S@+]([O-])CCCl` [Compound 525] as the molecule, how does the “weeding effect … Abutilon theophrasti” value (Abutilon theophrasti) read?
A: 5 (Level 5: growth control rate is above 85%)

Q: And the “weeding effect … Amaranthus retroflexus” value (Amaranthus retroflexus)?
A: 5 (Level 5: growth control rate is above 85%)

Q: And the “weeding effect … Digitaria sanguinalis” value (Digitaria sanguinalis)?
A: 5 (Level 5: growth control rate is above 85%)

Q: And the “weeding effect … Echinochloa crusgali” value (Echinochloa crusgali)?
A: 5 (Level 5: growth control rate is above 85%)

Q: For `CCC[S@@+]([O-])c1c(C(F)(F)F)ccc(C(=O)Nc2nnc(C)o2)c1Br` [Compound 544], which “weeding effect … Abutilon theophrasti” value (Abutilon theophrasti) is on record?
A: 5 (Level 5: growth control rate is above 85%)

Q: What about the “weeding effect … Amaranthus retroflexus” value (Amaranthus retroflexus) of the same molecule?
A: 5 (Level 5: growth control rate is above 85%)

Q: And the “weeding effect … Digitaria sanguinalis” value (Digitaria sanguinalis)?
A: 5 (Level 5: growth control rate is above 85%)

Q: What about the “weeding effect … Echinochloa crusgali” value (Echinochloa crusgali) of the same molecule?
A: 5 (Level 5: growth control rate is above 85%)

Q: `Cc1c(C(=O)Nc2nnnn2C)ccc(S(C)(=O)=O)c1[S@+]([O-])CC(C)F` (stereo partly shown) [Compound 521] was tested. Which “weeding effect … Abutilon theophrasti” value (Abutilon theophrasti) did it give?
A: 5 (Level 5: growth control rate is above 85%)

Q: What about the “weeding effect … Amaranthus retroflexus” value (Amaranthus retroflexus) of the same molecule?
A: 5 (Level 5: growth control rate is above 85%)

Q: And the “weeding effect … Digitaria sanguinalis” value (Digitaria sanguinalis)?
A: 5 (Level 5: growth control rate is above 85%)

Q: What about the “weeding effect … Echinochloa crusgali” value (Echinochloa crusgali) of the same molecule?
A: 5 (Level 5: growth control rate is above 85%)

Q: Which “weeding effect … Abutilon theophrasti” value (Abutilon theophrasti) does the source give for `CCC[S@@+]([O-])c1c(C(F)(F)F)ccc(C(=O)Nc2nnc(C)o2)c1C` [Compound 537] here?
A: 5 (Level 5: growth control rate is above 85%)

Q: What about the “weeding effect … Amaranthus retroflexus” value (Amaranthus retroflexus) of the same molecule?
A: 5 (Level 5: growth control rate is above 85%)

Q: And the “weeding effect … Digitaria sanguinalis” value (Digitaria sanguinalis)?
A: 5 (Level 5: growth control rate is above 85%)

Q: And the “weeding effect … Echinochloa crusgali” value (Echinochloa crusgali)?
A: 5 (Level 5: growth control rate is above 85%)

Q: With `CCC[S@@+]([O-])c1c(C(F)(F)F)ccc(C(=O)Nc2nnc(C)o2)c1OCOC` [Compound 536] as the molecule, how does the “weeding effect … Abutilon theophrasti” value (Abutilon theophrasti) read?
A: 5 (Level 5: growth control rate is above 85%)

Q: What about the “weeding effect … Amaranthus retroflexus” value (Amaranthus retroflexus) of the same molecule?
A: 5 (Level 5: growth control rate is above 85%)

Q: What about the “weeding effect … Digitaria sanguinalis” value (Digitaria sanguinalis) of the same molecule?
A: 5 (Level 5: growth control rate is above 85%)

Q: And the “weeding effect … Echinochloa crusgali” value (Echinochloa crusgali)?
A: 5 (Level 5: growth control rate is above 85%)

Q: Which results are given for `Cc1c(C(=O)Nc2nnnn2C)ccc(S(C)(=O)=O)c1[S@+]([O-])CC1CC1` [Compound 518]?
A: weeding effect in post-emergence stage, activity level (growth control rate), Abutilon theophrasti (Abutilon theophrasti): 5 (Level 5: growth control rate is above 85%); weeding effect in post-emergence stage, activity level (growth control rate), Amaranthus retroflexus (Amaranthus retroflexus): 5 (Level 5: growth control rate is above 85%); weeding effect in post-emergence stage, activity level (growth control rate), Digitaria sanguinalis (Digitaria sanguinalis): 5 (Level 5: growth control rate is above 85%); weeding effect in post-emergence stage, activity level (growth control rate), Echinochloa crusgali (Echinochloa crusgali): 5 (Level 5: growth control rate is above 85%)

Q: With `CCn1nnnc1NC(=O)c1ccc(S(C)(=O)=O)c([S@+]([O-])CC)c1C` [Compound 629] as the molecule, how does the “weeding effect … Amaranthus retroflexus” value (Amaranthus retroflexus) read?
A: 5 (Level 5: growth control rate is above 85%)

Q: And the “weeding effect … Digitaria sanguinalis” value (Digitaria sanguinalis)?
A: 5 (Level 5: growth control rate is above 85%)

Q: What about the “weeding effect … Echinochloa crusgali” value (Echinochloa crusgali) of the same molecule?
A: 5 (Level 5: growth control rate is above 85%)

Q: How did the “weeding effect … Amaranthus retroflexus” value (Amaranthus retroflexus) turn out when `Cc1nnc(NC(=O)c2ccc(S(C)(=O)=O)c([S@+]([O-])CCS(C)(=O)=O)c2C)o1` [Compound 625] was run?
A: 5 (Level 5: growth control rate is above 85%)

Q: What about the “weeding effect … Digitaria sanguinalis” value (Digitaria sanguinalis) of the same molecule?
A: 5 (Level 5: growth control rate is above 85%)

Q: What about the “weeding effect … Echinochloa crusgali” value (Echinochloa crusgali) of the same molecule?
A: 5 (Level 5: growth control rate is above 85%)

Q: How did the “weeding effect … Amaranthus retroflexus” value (Amaranthus retroflexus) turn out when `Cc1c(C(=O)Nc2nnnn2C)ccc(S(C)(=O)=O)c1[S@+]([O-])CCCC(F)(F)F` [Compound 601] was run?
A: 5 (Level 5: growth control rate is above 85%)

Q: What about the “weeding effect … Digitaria sanguinalis” value (Digitaria sanguinalis) of the same molecule?
A: 5 (Level 5: growth control rate is above 85%)

Q: What about the “weeding effect … Echinochloa crusgali” value (Echinochloa crusgali) of the same molecule?
A: 5 (Level 5: growth control rate is above 85%)

Q: Which “weeding effect … Amaranthus retroflexus” value (Amaranthus retroflexus) does the source give for `CSc1c(C(=O)Nc2nnnn2C)ccc(C(F)(F)F)c1[S@+]([O-])CCF` [Compound 596] here?
A: 5 (Level 5: growth control rate is above 85%)

Q: And the “weeding effect … Digitaria sanguinalis” value (Digitaria sanguinalis)?
A: 5 (Level 5: growth control rate is above 85%)

Q: What about the “weeding effect … Echinochloa crusgali” value (Echinochloa crusgali) of the same molecule?
A: 5 (Level 5: growth control rate is above 85%)
